This passage reports melting point results from a melting point compilation (Tetko et al.; mined from patent text by program, amines drawn as free bases though some values may be those of a salt).

Structures are written as SMILES.

The term melting point denotes the temperature, or range, at which the solid turns liquid. For the compound `O=C1NC(=S)C(c2cccc(Cl)c2)C1c1ccccc1` (stereo not drawn), the melting point is 104 to 106 °C.

Turning to `Cn1nc(-c2cnc3[nH]cc(C(=O)NCC(C)(C)CO)c3n2)c2ccc(F)cc21`, the melting point was in the range of 291 to 293 °C. In the case of `CS(=O)(=O)c1ccc(Oc2ccc(Br)cc2)cc1` it was 128 to 129 °C; in that of `Cc1c(N2CC[C@@H](O)[C@H](C)C2)c(F)cc2c(=O)c(C(=O)O)cn(C3CC3)c12` (relative stereo), 206 to 210 °C.

On to `O=C1NC(=O)c2c1cc1ccc3c(c1c2C1CCCCC1)OCO3`, for which the melting point fell in the range of 305 to 308 °C. In the case of `O=C1C2=C(SCCO2)C(O)N1c1ccc2ccc(Cl)cc2n1` (stereo not drawn) it was 270 °C. The compound `COC(=O)CC1CC(c2ccc(Cl)nc2)=NO1` (stereo not drawn) yielded a melting point of 94 to 96 °C.

The compound `CC(C)(C)NCC(O)COc1ccc(OCC2CC2)cc1` (stereo not drawn) gave a melting point of 90 to 92 °C. With `Cn1c(SCCCN2CCc3ccc(NS(C)(=O)=O)cc3C2)nnc1-c1ccccc1` the figure was 90 °C; with `CC1(C)Oc2cc(C#N)sc2[C@@H](N2CCCCC2=O)[C@@H]1O` (relative stereo), 212 to 214 °C; with `COc1cc2c(cc1OCc1ccccc1)CCN(C(=O)CC13CC4CC(CC(C4)C1)C3)C2`, 133 to 135 °C.

Regarding `CCc1cc(COc2nn(Cc3ccccc3)cc2C=O)ccc1OCc1nc(-c2ccco2)oc1C`, the melting point lay within 128 to 129 °C. With `CC(=O)NC(Cc1ccccc1)C1CC(Cc2ccccc2)=NO1` (stereo not drawn) the figure was 97.8 to 98.4 °C; with `O=C1NCCN1c1ccc(S(=O)(=O)Nc2ccc(I)cc2)cc1`, 266 to 267 °C; with `COC(=O)C(Oc1ccc(F)cc1)c1ccc(Oc2ccc(S(C)(=O)=O)cc2)cc1` (stereo not drawn), 135 to 137 °C. In the case of `COc1ccc(/C=C/C(=O)N2CC(CCl)c3c2cc(NC(=O)OC(C)(C)C)c2ccccc32)cc1` (stereo not drawn) it was 185 to 186 °C. With `COc1ccc2c(C(=O)C=[N+]=[N-])nn(Cc3ccc(Cl)c(Cl)c3)c(=O)c2c1` the figure was 129 to 130 °C; with `CC(C)C(=O)NC1=NN(c2cccc(C(F)(F)F)c2)CC1`, 167 to 168 °C; with `NS(=O)(=O)c1cscc1C(=O)Cl`, 236 to 238 °C. `CCOc1nc(N(C)C)nc(=O)[nH]1` came in with a melting point of 215 to 216 °C. With `CCC(C(=O)N(C)C)n1cc(Cl)c(-c2ccccc2C)n1` (stereo not drawn) the figure was 49.5 to 52 °C; with `Oc1cc(O)c2c(-c3cc(F)cc(F)c3)c(Br)oc2c1`, 121 to 122 °C; with `COc1ccc(N(Cc2cnn(Cc3ccc(C(F)(F)F)cc3)c2)C(=O)C2CCCc3c(O)cccc32)cn1` (stereo not drawn), 199 to 200 °C. With `CNCC(=O)N1c2ccccc2N(C)S(=O)(=O)c2ccccc21` the figure was 135 to 137 °C; with `Nc1c([N+](=O)[O-])c(C(F)(F)F)nn1-c1c(Cl)cc(C(F)(F)F)cc1Cl`, 214 to 215 °C. For `COc1cc(C(=O)c2c(N)sc3c2CCN(C(=O)c2ccccc2)C3)ccc1OC(C)C`, the melting point lay in the range of 158 to 160 °C. With `COc1ccc2c(c1)OC(C)(C)CC2=O` the figure was 77 to 78 °C; with `CCN1CCN(c2cccc3c2C[C@H](NC(C)=O)CC3)CC1`, 142 to 143 °C.

The compound `CON(C)C(=O)c1sc(SC)c2c1CCc1sc(-c3ccccc3)nc1-2` gave a melting point of 157 to 158 °C. With `CCCCc1ccc2c(c1)Cc1cc(C(C)=O)ccc1-2` the figure was 102 to 104 °C; with `O=C(C=Cc1cccnc1)NCCCCC1CCN(C2c3ccccc3CSc3ccccc32)CC1` (stereo not drawn), 89 to 91 °C.

`COC(=O)C(CCON1C(=O)c2ccccc2C1=O)NC(=O)Cc1ccccc1` (stereo not drawn): the melting point was 138 to 139 °C. With `OC[C@H](F)[C@H](OCc1ccccc1)[C@H](OCc1ccccc1)[C@@H](O)C(F)(F)F` the figure was 64 to 65 °C; with `COC(=O)C(=COCF)c1ccccc1CBr`, 73 to 76 °C. For the compound `Cc1oc(-c2ccc(-c3ccc(-c4nc(CCO)c(C)o4)cc3)cc2)nc1CCO`, the melting point lay in the range of 134 to 135 °C. For the compound `CCC(C)Sc1cc(C(F)(F)F)ccc1C(=O)O` (stereo not drawn), the melting point lay within 99.8 to 101 °C. In the case of `COc1ccc(C(O)C=Cc2ccc(N(C)C)cc2)cc1` (stereo not drawn) it was 137 to 148 °C. In the case of `NS(=O)(=O)c1cccc(-c2ccco2)c1` it was 197 to 198 °C; in that of `CCCCNC(=O)Nc1cc(Cl)ccc1C(=O)NCC1CCN(C(c2ccccc2)c2ccccc2)CC1`, 195 to 197 °C; in that of `Cc1nc2c(C(F)(F)F)cccc2c(O)c1C(=O)Nc1nccs1`, 267 °C. For the compound `O=C(O)C(Sc1ccccc1)c1ccc(Oc2ccc(Cl)cc2)cc1` (stereo not drawn), the melting point was in the range of 156 to 158 °C.

For `CC(C)(C)OC(=O)C(C#N)=C(NCCCN1CCCCCC1=O)Nc1cc(C(F)(F)F)cc(C(F)(F)F)c1`, the melting point fell in the range of 167 to 168 °C. With `COCCOc1nc(N)nc(-c2ccccc2)c1-c1ccc(=O)n(C(C)C)n1` the figure was 128 to 130 °C. For `CN(Cc1ccc(-c2ccc(O)c(Br)c2)cc1)C(=O)c1cn(Cc2ccccc2)c2ccccc12`, the melting point fell in the range of 164 to 170 °C. On to `C[C@@H](C(=O)OC(C)(C)C)N(Cc1ccccc1)S(=O)(=O)c1ccc2c(Cl)cnc(Cl)c2c1`, for which the melting point lay in the range of 92 to 96 °C.

In turn, `CCC(CO)NCC(O)COc1ccccc1C#N` (stereo not drawn) showed a melting point of 106 to 108 °C. In the case of `CC(=O)Nc1nc(C)c(CCN2CCC(=C(c3ccc(F)cc3)c3ccc(F)cc3)CC2)c(=O)n1C` it was 141 °C. With `CN1CCOc2cc(N)ccc2C1=O` the figure was 169 to 170 °C; with `Nc1cccc2c1OCCO2`, 134 to 135 °C; with `CC(C)C(c1ccccc1O)N1CCOCC1` (stereo not drawn), 73 to 77 °C.

Consider `ClCc1cc(Cl)nc(Cl)n1`, for which the melting point lay in the range of 32 to 33 °C. With `CCOC(=O)Oc1ccc(S(=O)(=O)N2c3cc(Br)ccc3-n3cccc3[C@@H]2CC)cc1` the figure was 137 to 139 °C; with `CC1(C)NC(=O)c2ccc(Oc3nnnn3-c3ccccc3)cc21`, 202 to 204 °C; with `CCCn1cc2c(C3C(=O)Nc4ccc(Br)cc43)nc(NC3CCNC3)nc2n1` (stereo not drawn), 315 to 320 °C. With `CCOC(=O)c1snc(CO)c1N` the figure was 82 to 85 °C; with `CNC(=NC(=O)NC1CCCCC1)N(C)C`, 121 to 124 °C. In the case of `N#Cc1c(N2CCCCC2)cc(-c2cccc3ccccc23)c2c1-c1ccccc1C2` it was 188 to 190 °C. `Cc1occ(C(F)(F)F)c1C(=O)O` gave a melting point of 140 °C. In the case of `O=[N+]([O-])c1c(Br)cccc1CS(=O)(=O)c1ccccc1`, the melting point was in the range of 138 to 141 °C. With `CC(=O)Nc1ccc2c(c1)S(=O)(=O)N=C(NC(C)C)N2` the figure was 260 to 262 °C; with `CNC(=O)C1CCN(S(=O)(=O)c2ccc(Cl)c(COc3cccc4c(-n5ccnc5)cc(C)nc34)c2Cl)C1` (stereo not drawn), 108 °C. In the case of `COc1cc(OC)c2c(=O)c(OCCOc3ccc(C(C)=C4SC(=O)NC4=O)cc3)c(-c3ccc(OC)c(OC)c3)oc2c1` it was 205 to 206 °C; in that of `COC(=O)C1(N)C(=O)Nc2ccccc2CC1c1ccccc1` (stereo not drawn), 201 °C.
